# Laboratory results: article PMC9267128, “New 2-[(4-Amino-6-N-substituted-1,3,5-triazin-2-yl)methylthio]-N-(imidazolidin-2-ylidene)-4-chloro-5-methylbenzenesulfonamide Derivatives, Design, Synthesis and Anticancer Evaluation” (International Journal of Molecular Sciences, 2022)
# Experiments:
# [1] = test system: MCF-7 (breast cancer); assay: MTT cell viability assay, MCF-7; format: cell-based, human; conditions: for IC50: Homo sapiens, MCF7, 72 h, MTT assay, 72 h of incubation; for Selectivity Index (SI) MCF-7: IC50 value toward HaCaT cells/IC50 value toward MCF-7
# Experimental: (§1) Compounds 20–162 were evaluated in vitro for their effects on the viability of three cancer cell lines: HCT-116 (colon cancer), MCF-7 (breast cancer) and HeLa (cervical cancer), as well as the non-cancerous keratinocyte cell line (HaCaT). […] Analysis was performed using an MTT assay after 72 h of incubation.
# (§2) All chemicals, if not stated otherwise, were obtained from Sigma–Aldrich (St. Louis, MO, USA). The HCT-116 cell line was purchased from ATCC (ATCC-No: CCL-247), while the MCF-7, HeLa and HaCaT cell lines were purchased from Cell Lines Services (Eppelheim, Germany). Cells were cultured in Dulbecco’s modified Eagle’s medium (DMEM) supplemented with 10% fetal bovine serum, 2 mM glutamine, 100 units/mL penicillin and 100 µg/mL streptomycin. Cultures were maintained in a humidified atmosphere with 5% carbon dioxide at 37 °C in an incubator (Heraceus, HeraCell).
# (§3) Cell viability was examined using the MTT [3-(4,5-dimethylthiazol-2-yl)-2,5-diphenyltetrazolium bromide] assay. Cells were seeded in 96-well plates at a density of 3 × 10^3 cells/well and treated for 72 h with the tested compounds in the concentration range of 1–100 µM. Then, MTT (0.5 mg/mL) was added to the medium and cells were further incubated for 2 h at 37 °C. In the next stage, cells were lysed with DMSO and the absorbance of the formazan solution was measured at 550 nm with a plate reader (1420 multilabel counter, Victor, Jügesheim, Germany). The experiment was performed in triplicate. Values are expressed as the mean ± SD of at least three independent experiments. Cisplatin was used as a positive control.
# [2] = test system: HCT-116 (colon cancer); assay: MTT cell viability assay, HCT-116; format: cell-based, human; conditions: for IC50: MTT assay, 72 h of incubation; for Selectivity Index (SI) HCT-116: IC50 value toward HaCaT cells/IC50 value toward HCT-116
# Experimental: (§4) Analysis was performed using an MTT assay after 72 h of incubation.
# as §2
# as §3, with “experiments.” for “experiments. Cisplatin was used as a positive control.”
# [3] = test system: HeLa (cervical cancer); assay: MTT cell viability assay, HeLa; format: cell-based, human; conditions: for IC50: Homo sapiens, HeLa, MTT assay, 72 h of incubation; for Selectivity Index (SI) HeLa: IC50 value toward HaCaT cells/IC50 value toward HeLa
# Experimental: as §4, §2
# as §3, with “experiments.” for “experiments. Cisplatin was used as a positive control.”
# [4] = test system: HaCaT (human keratinocyte cell line); assay: MTT cell viability assay, non-cancerous HaCaT; format: cell-based; conditions: Homo sapiens, HaCaT, 72 h, 72 h of incubation, non-cancerous keratinocytes
# Experimental: as §1, §2, §3
Compound,IC50 [1],"IC50 ([2]; Homo sapiens, HCT-116, 72 h)",IC50 [3],IC50 [4],Selectivity Index (SI) MCF-7 [1],Selectivity Index (SI) HCT-116 [2],IC50 [2],Selectivity Index (SI) HeLa [3]
Cc1cc(S(=O)(=O)N=C2NCCN2)c(SCc2nc(N)nc(N3CCc4ccccc43)n2)cc1Cl [Compound 23],130 ± 3 µM,142 ± 4 µM,150 ± 2 µM,,,,,
Cc1cc(S(=O)(=O)N=C2NCCN2Cc2ccc(F)cc2)c(SCc2nc(N)nc(N3CCN(c4ccccc4)CC3)n2)cc1Cl [Compound 92],8 ± 0.4 µM,7 ± 0.3 µM,8 ± 0.5 µM,18 ± 1 µM,,,,
Cc1cc(S(=O)(=O)N=C2NCCN2)c(SCc2nc(N)nc(N(C)c3ccccc3)n2)cc1Cl [Compound 28],45 ± 0.5 µM,58 ± 0.6 µM,80 ± 1 µM,,,,,
Cc1cc(S(=O)(=O)N=C2NCCN2Cc2ccccc2)c(SCc2nc(N)nc(N(C)c3ccccc3)n2)cc1Cl [Compound 54],12 ± 0.1 µM,11 ± 0.1 µM,16 ± 0.2 µM,28 ± 1 µM,,,,
Cc1cc(S(=O)(=O)N=C2NCCN2Cc2cc(C(F)(F)F)cc(C(F)(F)F)c2)c(SCc2nc(N)nc(N3CCN(c4ccccc4)CC3)n2)cc1Cl [Compound 150],4.5 ± 0.2 µM,< 6 µM,11 ± 0.3 µM,23 ± 1 µM,5.1,6.4,3.6 ± 0.2 µM,2.0
Cc1cc(S(=O)(=O)N=C2NCCN2Cc2ccc(F)cc2)c(SCc2nc(N)nc(N3CCCc4ccccc43)n2)cc1Cl [Compound 84],7 ± 0.1 µM,9 ± 0.5 µM,15 ± 0.6 µM,27 ± 1 µM,,,,
Cc1cc(S(=O)(=O)N=C2NCCN2Cc2cc(C(F)(F)F)cc(C(F)(F)F)c2)c(SCc2nc(N)nc(N3CCc4ccccc43)n2)cc1Cl [Compound 144],8 ± 0.2 µM,8 ± 0.5 µM,13 ± 0.2 µM,27 ± 1 µM,,,,
Cc1cc(S(=O)(=O)N=C2NCCN2Cc2ccccc2)c(SCc2nc(N)nc(N3CCN(c4ccc(F)c(Cl)c4)CC3)n2)cc1Cl [Compound 65],11 ± 0.5 µM,7 ± 0.2 µM,11 ± 0.3 µM,23 ± 1 µM,,,,
Cc1cc(S(=O)(=O)N=C2NCCN2Cc2cc(C(F)(F)F)cc(C(F)(F)F)c2)c(SCc2nc(N)nc(N3CCN(c4cccc(C(F)(F)F)c4)CC3)n2)cc1Cl [Compound 153],8 ± 0.2 µM,6 ± 0.3 µM,9 ± 0.5 µM,19 ± 0.5 µM,,,,
Cc1cc(S(=O)(=O)N=C2NCCN2Cc2cc(C(F)(F)F)cc(C(F)(F)F)c2)c(SCc2nc(N)nc(N3CCC(Cc4ccccc4)CC3)n2)cc1Cl [Compound 157],6 ± 0.3 µM,5 ± 0.1 µM,13 ± 0.5 µM,23 ± 1 µM,3.8,4.6,,1.7
Cc1cc(S(=O)(=O)N=C2NCCN2Cc2ccc(F)cc2)c(SCc2nc(N)nc(N(C)c3ccc(Cl)cc3)n2)cc1Cl [Compound 90],17 ± 1 µM,12 ± 0.2 µM,15 ± 0.6 µM,30 ± 2 µM,,,,
Cc1cc(S(=O)(=O)N=C2NCCN2Cc2cc(C(F)(F)F)cc(C(F)(F)F)c2)c(SCc2nc(N)nc(NCc3ccccc3)n2)cc1Cl [Compound 148],8.5 ± 0.5 µM,9.5 ± 0.2 µM,15 ± 1 µM,29 ± 1 µM,,,,
Cc1cc(S(=O)(=O)N=C2NCCN2Cc2ccc(F)cc2)c(SCc2nc(N)nc(N3CCN(Cc4ccccc4)CC3)n2)cc1Cl [Compound 101],11 ± 0.2 µM,12 ± 0.5 µM,10 ± 0.6 µM,21 ± 1 µM,,,,
Cc1cc(S(=O)(=O)N=C2NCCN2Cc2ccc(Br)cc2)c(SCc2nc(N)nc(Nc3ccccc3)n2)cc1Cl [Compound 104],13 ± 0.4 µM,17 ± 1 µM,25 ± 1 µM,44 ± 2 µM,,,,
Cc1cc(S(=O)(=O)N=C2NCCN2Cc2ccc(C(F)(F)F)cc2)c(SCc2nc(N)nc(Nc3ccccc3)n2)cc1Cl [Compound 122],20 ± 1 µM,14 ± 0.4 µM,19 ± 0.5 µM,35 ± 1 µM,,,,
